Measurements published in patent US10645928B2, “Pesticidally active polycyclic derivatives with sulfur containing substituents” (Syngenta Participations AG, priority 2014, dated 2020).

Experiments:
Assay type in all cases: in vivo
[1] = tested on: Bemisia tabaci (Cotton White Fly); assay: Example B1: Bemisia tabaci, sprayed cotton leaf discs, mortality; details: foliar, 144 h, application rate of 200 ppm, adult white flies, 6 days after incubation
Description: Cotton leaf discs were placed on agar in 24-well microtiter plates and sprayed with aqueous test solutions prepared from 10,000 ppm DMSO stock solutions. After drying the leaf discs were infested with adult white flies. The samples were checked for mortality 6 days after incubation.

[2] = tested on: Tetranychus urticae (Two-Spotted Spider Mite); assay: Example B21: Tetranychus urticae, sprayed bean leaf discs, mortality; details: foliar, 192 h, application rate of 200 ppm, mixed population (mobile stages), 8 days after infestation
Description: Bean leaf discs on agar in 24-well microtiter plates were sprayed with aqueous test solutions prepared from 10,000 ppm DMSO stock solutions. After drying the leaf discs were infested with a mite population of mixed ages. The samples were assessed for mortality on mixed population (mobile stages) 8 days after infestation.

[3] = tested on: Aedes aegypti (Yellow Fever Mosquito); assay: Example B23: Aedes aegypti, dry deposits in 12 well tissue culture plates, control; details: application rate of 200 ppm in ethanol, adult females, after 48 h and/or 24 h
Description: Test solutions, at an application rate of 200 ppm in ethanol, were applied to 12 well tissue culture plates. Once the deposits were dry, five, two to five day old adult female Aedes aegypti were added to each well, and sustained with a 10% sucrose solution in a cotton wool plug. Assessment of knockdown was made one hour after introduction, and mortality was assessed at 24 and 48 hours after introduction.

[4] = tested on: Myzus persicae (Green Peach Aphid); assay: Example B8: Myzus persicae, sprayed sunflower leaf discs, mortality; details: foliar, 144 h, application rate of 200 ppm, leaf disc spray, aphid population of mixed ages, 6 days after infestation
Description: Sunflower leaf discs were placed onto agar in a 24-well microtiter plate and sprayed with aqueous test solutions prepared from 10,000 ppm DMSO stock solutions. After drying, the leaf discs were infested with an aphid population of mixed ages. The samples were assessed for mortality 6 days after infestation.

[5] = tested on: Spodoptera littoralis (Egyptian Cotton Leaf Worm); assay: Example B18: Spodoptera littoralis, compound in agar absorbed by lettuce roots, mortality, anti-feedant effect and growth inhibition; details: 144 h, test rate of 12.5 ppm, uptake by lettuce roots, Spodoptera eggs, 6 days after infestation, read-out: effect in at least one of the three categories (mortality, anti-feeding, or growth inhibition)
In short: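 Compound from 10,000 ppm DMSO stock mixed into agar; lettuce seeds grew 7 days, taking compound up via roots into the lid plate. Cut leaves infested with Spodoptera eggs; mortality, anti-feedant effect and growth inhibition scored against untreated samples 6 days after infestation.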

[6] = tested on: Spodoptera littoralis (Egyptian Cotton Leaf Worm); assay: Example B19: Spodoptera littoralis, compound in agar absorbed by lettuce roots, anti-feedant effect; details: 144 h, test rate of 12.5 ppm, uptake by lettuce roots, Spodoptera eggs, 6 days after infestation, read-out: anti-feeding
In short: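 Compound from DMSO stock mixed into agar; lettuce seedlings took it up via roots over 7 days, then cut leaves were infested with Spodoptera eggs. Anti-feedant effect scored 6 days after infestation relative to untreated samples.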

CCS(=O)(=O)c1cc(C(C#N)CCBr)cnc1-c1cn2cnc(C(F)(F)F)cc2n1 (stereo not drawn) [Compound P13, 4-bromo-2-[5-ethylsulfonyl-6-[7-(trifluoromethyl)imidazo[1,2-c]pyrimidin-2-yl]-3-pyridyl]butanenitrile]
≥ 80%: mortality at 200 ppm [1] | mortality at 200 ppm [2] | pest or weed control at 200 ppm [3] | mortality at 200 ppm [4] | percent effect (mortality, anti-feeding or growth inhibition) at 12.5 ppm [5] | pest or weed control at 12.5 ppm [6]
